Legend:
Assay type in all cases: cell-based, influenza virus
Influenza Type B = system: Influenza Type B
[1] = system: Influenza Type A H1N1 (PR8)
[2] = system: Influenza Type A H9N2 (avian)
[3] = system: Influenza Type A H3N2 (swine)

Compound | Hemagglutination inhibition concentration (Influenza Type B) [mM] | Hemagglutination inhibition concentration [1] [mM] | Hemagglutination inhibition concentration [2] [mM] | Hemagglutination inhibition concentration [3] [mM]
CC(=O)NC1C(O)CC(OCC2CC(O)C(O)C(OC3C(CO)OC(OCCCCCCNC(=O)CCC(=O)OC4OC(COC(=O)CCC(=O)NCCCCCCOC5OC(O)C(OC6OC(COC7(C(=O)O)CC(O)C(NC(C)=O)C([C@@H](O)[C@H](O)CO)O7)CC(O)C6O)C(O)C5O)C(OC(=O)CCC(=O)NCCCCCCOC5OC(CO)C(OC6OC(COC7(C(=O)O)CC(O)C(NC(C)=O)C(C(O)[C@H](O)CO)O7)CC(O)C6O)C(O)C5O)C4OC(=O)CCC(=O)NCCCCCCOC4OC(CO)C(OC5OC(COC6(C(=O)O)CC(O)C(NC(C)=O)C([C@@H](O)[C@H](O)CO)O6)C(O)C(O)C5O)C(O)C4O)C(O)C3O)O2)(C(=O)O)OC1C(O)[C@H](O)CO (stereo partly drawn) [Compound 4] | 0.15 | 0.45 | 2.0 | 0.85
CC(=O)N[C@H]1[C@H]([C@H](O)[C@H](O)CO)O[C@@](O[C@H]2[C@@H](O)[C@@H](CO)O[C@@H](O[C@H]3[C@H](O)[C@@H](O)C(O)O[C@@H]3CO)[C@@H]2O)(C(=O)O)C[C@@H]1O (stereo partly drawn) [compound 1, 3′-sialyl lactose] | 10 | 25 | 18 | 20
CC(=O)N[C@H]1[C@H]([C@H](O)[C@H](O)CO)O[C@@](OC[C@H]2O[C@@H](O[C@H]3[C@H](O)[C@@H](O)[C@H](O)O[C@@H]3CO)[C@H](O)[C@@H](O)[C@H]2O)(C(=O)O)C[C@@H]1O [compound 2, 6′-sialyl lactose] | 4.5 | 12.5 | >100 | 4.5

Source: patent US20220089631A1, “COMPOUND COMPRISING MULTIVALENT SIALYLOLIGO[…], AND COMPOSITION FOR PREVENTING OR TREATING VIRAL INFECTION DISEASES, CONTAINING SAME AS ACTIVE INGREDIENT” (priority 2018, published 2022)
